Data from patent US8710065B2, “Tricyclic inhibitors of kinases” (AbbVie Inc., priority 2011, dated 2014).

target: T1, GST-tagged-Wee1 kinase (Homo sapiens, UniProt P30291); assay: Wee1 time-resolved fluorescence equilibrium binding assay (displacement of Oregon Green-labeled ATP-competitive kinase probe); conditions: not given
T1 construct: purchased Carnabio (Carna Biosciences) 05-177
Method in brief: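 Time-resolved fluorescence equilibrium binding with GST-Wee1, measuring displacement of a rapidly reversible Oregon Green-labelled ATP-competitive probe by competitive inhibitors; values reported as Ki.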

T1 sequence (P30291 whole entry): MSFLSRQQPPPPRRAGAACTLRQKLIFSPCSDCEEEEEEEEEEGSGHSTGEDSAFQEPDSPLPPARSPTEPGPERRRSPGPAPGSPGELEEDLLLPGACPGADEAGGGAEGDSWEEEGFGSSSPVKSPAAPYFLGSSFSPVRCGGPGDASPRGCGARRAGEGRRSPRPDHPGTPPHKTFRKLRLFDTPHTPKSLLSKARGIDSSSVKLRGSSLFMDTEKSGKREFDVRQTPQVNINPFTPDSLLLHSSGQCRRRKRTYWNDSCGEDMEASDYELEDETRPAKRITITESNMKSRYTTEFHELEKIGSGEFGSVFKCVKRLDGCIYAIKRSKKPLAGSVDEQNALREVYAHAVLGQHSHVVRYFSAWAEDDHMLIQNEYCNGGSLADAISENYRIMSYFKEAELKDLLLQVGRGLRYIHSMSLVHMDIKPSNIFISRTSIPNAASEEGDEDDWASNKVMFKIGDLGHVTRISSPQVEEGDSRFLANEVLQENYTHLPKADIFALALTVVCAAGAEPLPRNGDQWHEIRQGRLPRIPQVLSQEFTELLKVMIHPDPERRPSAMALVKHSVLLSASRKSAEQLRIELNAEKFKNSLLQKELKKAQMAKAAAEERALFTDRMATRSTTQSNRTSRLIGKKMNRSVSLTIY

| SMILES | Kd [nM] |
| --- | --- |
| O=C(NCCOCCOCCN1CCN(c2ccc(-c3cc4c(-c5cnc(C6(O)CCC6)s5)c(Cl)cnc4[nH]3)cc2)CC1)c1ccc2c(c1)C(=O)OC21c2cc(F)c(O)cc2Oc2cc(O)c(F)cc21 [fluorescent probe, N-(2-(2-(2-(4-(4-(5-chloro-4-(2-(1-hydroxycyclobutyl)thiazol-5-yl)-1H-pyrrolo[2,3-b]pyridin-2-yl)phenyl)piperazin-1-yl)ethoxy)ethoxy)ethyl)-2′,7′-difluoro-3′,6′-dihydroxy-3-oxo-3H-spiro[isobenzofuran-1,9′-xanthene]-5-carboxamide, reference compound] | 137 |

same assay, conditions: read-out: Wee-1 inhibition (Ki)

| Ki [nM] | SMILES |
| --- | --- |
| 10 to 100 | CC1(C)CN(Cc2ccccc2C#N)Cc2cc(Nc3ncc4c(=O)n(-c5ccccc5Cl)c5nccn5c4n3)ccc21 [Example 356, 2-{[7-{[6-(2-chlorophenyl)-5-oxo-5,6-dihydroimidazo[1,2-a]pyrimido[5,4-e]pyrimidin-2-yl]amino}-4,4-dimethyl-3,4-dihydroisoquinolin-2(1H)-yl]methyl}benzonitrile] |
| 10 to 100 | CCCOc1ccc(CN2Cc3cc(Nc4ncc5c(=O)n(-c6ccccc6Cl)c6nccn6c5n4)ccc3C(C)(C)C2)cc1 [Example 357, 6-(2-chlorophenyl)-2-{[4,4-dimethyl-2-(4-propoxybenzyl)-1,2,3,4-tetrahydroisoquinolin-7-yl]amino}imidazo[1,2-a]pyrimido[5,4-e]pyrimidin-5(6H)-one] |
| 10 to 100 | CC1(C)CN(Cc2cc(F)cc(C(F)(F)F)c2)Cc2cc(Nc3ncc4c(=O)n(-c5ccccc5Cl)c5nccn5c4n3)ccc21 [Example 358, 6-(2-chlorophenyl)-2-({2-[3-fluoro-5-(trifluoromethyl)benzyl]-4,4-dimethyl-1,2,3,4-tetrahydroisoquinolin-7-yl}amino)imidazo[1,2-a]pyrimido[5,4-e]pyrimidin-5(6H)-one] |
| 10 to 100 | Cc1ccc2nc(CCc3ccc(Nc4ncc5c(=O)n(-c6ccccc6Cl)c6nccn6c5n4)cc3)ccc2c1 [Example 361, 6-(2-chlorophenyl)-2-({4-[2-(6-methylquinolin-2-yl)ethyl]phenyl}amino)imidazo[1,2-a]pyrimido[5,4-e]pyrimidin-5(6H)-one] |

Second part, the molecule before the results:

| SMILES | Ki [nM] |
| --- | --- |
| C[C@@H]1CCCN1CCc1ccc(Nc2ncc3c(=O)n(-c4ccccc4Cl)c4nccn4c3n2)cc1 [Example 359, 6-(2-chlorophenyl)-2-[(4-{2-[(2R)-2-methylpyrrolidin-1-yl]ethyl}phenyl)amino]imidazo[1,2-a]pyrimido[5,4-e]pyrimidin-5(6H)-one] | 10 to 100 |
| O=c1c2cnc(Nc3ccc(-c4csc(N5CCOCC5)n4)cc3)nc2n2ccnc2n1-c1ccccc1Cl [Example 360, 6-(2-chlorophenyl)-2-({4-[2-(morpholin-4-yl)-1,3-thiazol-4-yl]phenyl}amino)imidazo[1,2-a]pyrimido[5,4-e]pyrimidin-5(6H)-one] | 10 to 100 |
